# Measured values taken from patent US20050282755A1, “Compositions having antimicrobial activity and uses thereof” (priority 2004, published 2005).
# Where two headings read alike, the source gives them in different places. Non-standard residues stand in square brackets, D forms with d. Residues, ends and D or L forms follow the SMILES beside them. *: point of attachment. Lauroyl = CCCCCCCCCCCC(=O)*; Decanoyl = CCCCCCCCCC(=O)*
# What was measured:
# Format in all cases: cell-based
# [1] = tested on: Salmonella dublin (Lane); assay: MIC, NCCLS M7-A6 broth microdilution (Table 9, no superscript)
# In short: (§1)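 Values come from a broth microdilution assay run in cation-adjusted Mueller Hinton broth with an inoculum of 5×10^5 to 1×10^6 CFU/milliliter, incubated overnight at 37° C and read as absence of visible turbidity.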
# [2] = tested on: Propionibacterium acnes ATCC 6919
# Method: A second method that was used to determine the MIC in P. acnes for selected antimicrobial agents was a non-standard broth microdilution method that used an assay buffer composed of reinforced Clostridial broth. Briefly, a log-phase bacterial culture of P. acnes was used to inoculate wells of a 96-well plate so that the final inoculum for each well contained 5×10^5 to 1×10^6 CFU/milliliter. […] Plates were incubated for 48-72 hours at 37° C. in a GasPak anaerobic chamber. The lowest concentration of peptide that contained no visible growth as evidenced by a lack of turbidity when compared to the control (no peptide) was determined as the MIC. MIC values that utilized this method of MIC determination are indicated in Table 9 with a subscript letter “d.”
# [3] = tested on: Staphylococcus aureus ATCC 29213; assay: MIC, NCCLS M7-A6 broth microdilution, cation-adjusted Mueller Hinton broth (Table 9, no superscript); conditions: ATCC 29213
# In short: as §1
# [4] = tested on: Propionibacterium acnes ATCC 6919; assay: MIC, agar dilution method NCCLS M11-A6, Brucella agar, anaerobic (Table 9, superscript c); conditions: ATCC 6919
# In short: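 Agar dilution per NCCLS M11-A6 on Brucella agar; final inoculum 1.5×10^8 CFU/milliliter applied to plates, incubated 48-96 hours at 37° C. under anaerobic (GasPak) conditions. MIC = lowest peptide concentration with no colony growth.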
# [5] = tested on: Escherichia coli ATCC 25922; assay: MIC, NCCLS M7-A6 broth microdilution (Table 9, no superscript); conditions: ATCC 25922
# In short: as §1
# [6] = tested on: Pseudomonas aeruginosa ATCC 27853; assay: as above; conditions: ATCC 27853
# In short: as §1
# [7] = tested on: Staphylococcus epidermidis ATCC 12228; assay: as above; conditions: ATCC 12228
# In short: as §1
# [8] = tested on: Candida albicans ATCC 18804; assay: MIC in yeasts, NCCLS M27-A2 broth microdilution, RPMI 1640 (Table 9, letter e); conditions: ATCC 18804
# In short: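 Broth microdilution per NCCLS M27-A2 in RPMI 1640 with glutamine and phenol red, final inoculum 0.5×10^3–2.5×10^3 CFU/milliliter. Incubated 24 to 48 hours at 37° C; MIC is the lowest peptide concentration with no visible growth.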
Structure (SMILES),MIC S. dublin [1] [µg/mL],MIC P. acnes [2] [µg·days/mL],MIC S. aureus [3] [µg/mL],MIC P. acnes [4] [c ug/mL],MIC E. coli [5] [µg/mL],MIC P. aeruginosa [6] [µg/mL],MIC S. epidermidis [7] [µg/mL],MIC C. albicans [8] [e ug/mL]
"CSCC[C@@H](NC(=O)[C@@H](Cc1ccccc1)NC(=O)[C@@H](CC(N)=O)NC(=O)[C@@H](CCCNC(=N)N)NC(=O)[C@@H](CO)NC(=O)[C@@H](Cc1c[nH]c2ccccc12)NC(=O)[C@@H](CC(=O)O)NC(=O)[C@@H](CCCNC(=N)N)NC(=O)[C@@H](Cc1c[nH]c2ccccc12)NC(=O)[C@@H](CCCNC(=N)N)NC(=O)[C@@H](CO)NC(=O)[C@@H](CCCNC(=N)N)NC(=O)CNC(=O)[C@H](NC(=O)[C@@H](CCCNC(=N)N)NC(=O)[C@@H](CO)NC(=O)[C@H](NC(=O)[C@@H](CCCNC(=N)N)NC(=O)[C@H](NC(C)=O)[C@H](C)O)C(C)C)[C@H](C)O)C(=O)N[C@H](CCCNC(=N)N)C(=O)N[C@H](CCCCN)C(=O)N[C@H](CCCCN)C(=O)N[C@H](CCCCN)C(=O)N[C@H](CCCCN)C(=O)N[C@H](CCCCN)C(=O)N[C@H](CCCCN)C(=O)N[C@H](CCCCN)C(=O)N[C@H](CCCCN)C(N)=O [Peptide 34, Ac-trvsrtgrsrwrdwsrnfmrkkkkkkkk-NH2] (Ac-[dT][dR][dV][dS][dR][dT]G[dR][dS][dR][dW][dR][dD][dW][dS][dR][dN][dF][dM][dR][dK][dK][dK][dK][dK][dK][dK][dK]-NH2)",>64,6,>64,,,,,
"CC(=O)N[C@@H](C(=O)N[C@H](CCCNC(=N)N)C(=O)N[C@@H](C(=O)N[C@H](CO)C(=O)N[C@H](CCCNC(=N)N)C(=O)N[C@@H](C(=O)NCC(=O)N[C@H](CCCNC(=N)N)C(=O)N[C@H](CO)C(=O)N[C@H](CCCNC(=N)N)C(=O)N[C@H](Cc1c[nH]c2ccccc12)C(=O)N[C@H](CCCNC(=N)N)C(=O)N[C@H](CC(=O)O)C(=O)N[C@H](Cc1c[nH]c2ccccc12)C(=O)N[C@H](CO)C(=O)N[C@H](CCCNC(=N)N)C(=O)N[C@H](CC(N)=O)C(=O)N[C@H](Cc1ccccc1)C(=O)N[C@H](C)C(=O)N[C@H](CCCNC(=N)N)C(N)=O)[C@H](C)O)C(C)C)[C@H](C)O [Peptide 61, Ac-trvsrtgrsrwrdwsrnfar-NH2] (Ac-[dT][dR][dV][dS][dR][dT]G[dR][dS][dR][dW][dR][dD][dW][dS][dR][dN][dF][dA][dR]-NH2)",>64,12.5,>64,,,,,
"CCCCCCCCCC(=O)NCCCC[C@H](NC(=O)[C@H](CCCNC(=N)N)NC(=O)[C@H](CC(C)C)NC(=O)[C@H](Cc1ccccc1)NC(=O)[C@H](CC(N)=O)NC(=O)[C@H](CCCNC(=N)N)NC(=O)[C@H](C)NC(=O)[C@@H](NC(=O)[C@H](CC(=O)O)NC(=O)[C@H](CCCNC(=N)N)NC(=O)[C@H](Cc1c[nH]c2ccccc12)NC(=O)[C@H](CCCNC(=N)N)NC(=O)[C@H](CO)NC(=O)[C@@H](N)CCCNC(=N)N)C(C)C)C(N)=O [Peptide 180, H2N-RSRWRDVARNFLRK(Decanyl)-NH2] (H-RSRWRDVARNFLRK(Decanoyl)-NH2)",16,,8,64,4,4,1,16
"CCCCCCCCCCCC(=O)N[C@H](CCCNC(=N)N)C(=O)N[C@H](CO)C(=O)N[C@H](CCCNC(=N)N)C(=O)N[C@H](Cc1c[nH]c2ccccc12)C(=O)N[C@H](C)C(=O)N[C@H](CC(=O)O)C(=O)N[C@@H](C(=O)N[C@H](C)C(=O)N[C@H](CCCNC(=N)N)C(=O)N[C@H](CC(N)=O)C(=O)N[C@H](Cc1ccccc1)C(=O)N[C@H](CCSC)C(=O)N[C@H](CCCNC(=N)N)C(N)=O)C(C)C [Peptide 240, Lauryl-rsrwadvarnfmr-NH2] (Lauroyl-[dR][dS][dR][dW][dA][dD][dV][dA][dR][dN][dF][dM][dR]-NH2)",4,,2,16,4,16,2,16
"CCCCCCCCCCCC(=O)NCCCC[C@H](NC(=O)[C@H](CCCNC(=N)N)NC(=O)[C@H](CCSC)NC(=O)[C@H](Cc1ccccc1)NC(=O)[C@H](CC(N)=O)NC(=O)[C@H](CCCNC(=N)N)NC(=O)[C@H](C)NC(=O)[C@@H](NC(=O)[C@H](CC(=O)O)NC(=O)[C@H](CCCNC(=N)N)NC(=O)[C@H](Cc1c[nH]c2ccccc12)NC(=O)[C@H](CCCNC(=N)N)NC(=O)[C@H](CO)NC(=O)[C@@H](N)CCCNC(=N)N)C(C)C)C(N)=O [Peptide 186, H2N-RSRWRDVARNFMRK(Lauryl)-NH2] (H-RSRWRDVARNFMRK(Lauroyl)-NH2)",16,,4,16,4,4,1,16
CCCCCCCCCCCC(=O)N[C@H](C(=O)N[C@@H](CCCNC(=N)N)C(=O)N[C@H](C(=O)N[C@@H](C)C(=O)N[C@@H](CCCNC(=N)N)C(=O)N[C@H](C(=O)NCC(=O)N[C@@H](CCCNC(=N)N)C(=O)N[C@@H](CO)C(=O)N[C@@H](CCCNC(=N)N)C(=O)N[C@@H](Cc1c[nH]c2ccccc12)C(=O)N[C@@H](CCCNC(=N)N)C(=O)N[C@@H](CC(=O)O)C(=O)N[C@@H](Cc1c[nH]c2ccccc12)C(=O)N[C@@H](C)C(=O)N[C@@H](CCCNC(=N)N)C(=O)N[C@@H](CC(N)=O)C(=O)N[C@@H](Cc1ccccc1)C(=O)N[C@@H](CCSC)C(=O)N[C@@H](CCCNC(=N)N)C(N)=O)[C@@H](C)O)C(C)C)[C@@H](C)O [Peptide 70] (Lauroyl-TRVARTGRSRWRDWARNFMR-NH2),32,,8,64,4,8,1,8
"CCCCCCCCCCCC(=O)N[C@H](CCCNC(=N)N)C(=O)N[C@H](CO)C(=O)N[C@H](CCCNC(=N)N)C(=O)N[C@H](Cc1c[nH]c2ccccc12)C(=O)N[C@H](CCCNC(=N)N)C(=O)N[C@H](CC(=O)O)C(=O)N[C@@H](C(=O)N[C@H](C)C(=O)N[C@H](CCCNC(=N)N)C(=O)N[C@H](CC(N)=O)C(=O)N[C@H](Cc1ccccc1)C(N)=O)C(C)C [Peptide 116, Lauryl-rsrwrdvarnf-NH2] (Lauroyl-[dR][dS][dR][dW][dR][dD][dV][dA][dR][dN][dF]-NH2)",8,,8,8,8,8,4,32
"CCCCCCCCCCCC(=O)N[C@@H](CCCNC(=N)N)C(=O)N[C@H](CO)C(=O)N[C@@H](CCCNC(=N)N)C(=O)N[C@H](Cc1c[nH]c2ccccc12)C(=O)N[C@@H](CCCNC(=N)N)C(=O)N[C@H](CC(=O)O)C(=O)N[C@@H](C(=O)N[C@H](C)C(=O)N[C@@H](CCCNC(=N)N)C(=O)N[C@H](CC(N)=O)C(=O)N[C@H](Cc1ccccc1)C(=O)N[C@H](CCSC)C(=O)N[C@@H](CCCNC(=N)N)C(N)=O)C(C)C [Peptide 158, Lauryl-RsRwRdvaRnfmR-NH2] (Lauroyl-R[dS]R[dW]R[dD][dV][dA]R[dN][dF][dM]R-NH2)",16,,8,8,16,4,2,32
